Assay results: patent publication EP0705277B1, “PROSTAGLANDIN RECEPTOR EP3 AND DNA ENCODING IT” (MERCK FROSST CANADA INC., priority 1993, dated 1995)

Key:
[1] = target: T1, hEP1 (Homo sapiens, UniProt P34995); assay: Binding at the hEP1 subtype (comparison value); conditions: given for comparison
T1 sequence (P34995 1-402): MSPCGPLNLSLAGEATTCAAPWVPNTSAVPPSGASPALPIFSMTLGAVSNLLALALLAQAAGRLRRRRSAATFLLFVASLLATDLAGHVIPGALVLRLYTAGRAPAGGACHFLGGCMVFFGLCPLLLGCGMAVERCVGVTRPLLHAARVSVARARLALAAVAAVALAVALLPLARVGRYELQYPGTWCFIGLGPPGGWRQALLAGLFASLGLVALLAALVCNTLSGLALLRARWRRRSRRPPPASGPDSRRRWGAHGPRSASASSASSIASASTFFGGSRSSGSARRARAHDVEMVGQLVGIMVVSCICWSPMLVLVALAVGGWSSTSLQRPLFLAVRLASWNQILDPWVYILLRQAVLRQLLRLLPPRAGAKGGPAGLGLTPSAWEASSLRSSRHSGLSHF

[2] = target: T2, hEP3 subtype (hEP3α, hEP3-21 and hEP3-9 isoforms) (Homo sapiens, UniProt P43115); assay: [3H]PGE2 competition binding, value stated across the three hEP3 isoforms
T2 sequence (P43115 1-390): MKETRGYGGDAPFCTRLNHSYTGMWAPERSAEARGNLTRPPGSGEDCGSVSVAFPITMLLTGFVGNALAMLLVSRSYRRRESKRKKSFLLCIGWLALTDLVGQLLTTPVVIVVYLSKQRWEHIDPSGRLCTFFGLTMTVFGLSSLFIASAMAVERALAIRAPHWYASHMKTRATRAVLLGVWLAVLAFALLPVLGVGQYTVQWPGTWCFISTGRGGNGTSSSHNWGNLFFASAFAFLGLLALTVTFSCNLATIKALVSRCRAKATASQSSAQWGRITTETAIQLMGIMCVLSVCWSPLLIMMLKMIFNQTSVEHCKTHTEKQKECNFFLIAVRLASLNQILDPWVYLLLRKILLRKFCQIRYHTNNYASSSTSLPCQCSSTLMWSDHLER
Experimental: (§1) Mammalian cell transfectants are analyzed for both the levels of EP3 receptor activity and levels of EP3 protein by the following methods. Assessing EP3 receptor activity involves the direct introduction of a labelled ligand to the cells and determining the amount of specific binding of the ligand to the EP3-expressing cells. Binding assays for receptor activity are known in the art (Frey et al., 1993, Eur. J. Pharmacol., 244, pp 239-250).
The three cloned forms of the human prostaglandin E receptor EP3 subtype (hEP3a, hEP3-21 and hEP3-9) which differ in the carboxyl terminus region of the encoded protein were individually subcloned into the pcDNAlamp plasmid (Invitrogen) and transfected into COS-M6 cells using the DEAE-dextran method. The cells were maintained in culture for 72 hours, then harvested and membranes prepared by differential centrifugation (1000 x g for 10 minutes, then 100,000 x g for 30 minutes) following lysis of the cells by nitrogen cavitation. […] Incubations were conducted for 1 hour at room temperature prior to separation of the bound and free radioligand by rapid filtration as previously described (Frey et al., 1993).

[3] = target: T3, thromboxane receptor (Homo sapiens, UniProt P21731); assay: SQ-29548 binding to 293 cells and membranes transfected with thromboxane-receptor cDNA; conditions: human embryonic kidney 293 cells and membranes transfected with thromboxane-receptor cDNA
T3 construct: One full-length (≈ 2.9 kb) clone contained extensive 5' and 3' noncoding regions; expressed in transfected cells; host or cells: human embryonic kidney 293 cells and membranes
T3 sequence (P21731 1-343): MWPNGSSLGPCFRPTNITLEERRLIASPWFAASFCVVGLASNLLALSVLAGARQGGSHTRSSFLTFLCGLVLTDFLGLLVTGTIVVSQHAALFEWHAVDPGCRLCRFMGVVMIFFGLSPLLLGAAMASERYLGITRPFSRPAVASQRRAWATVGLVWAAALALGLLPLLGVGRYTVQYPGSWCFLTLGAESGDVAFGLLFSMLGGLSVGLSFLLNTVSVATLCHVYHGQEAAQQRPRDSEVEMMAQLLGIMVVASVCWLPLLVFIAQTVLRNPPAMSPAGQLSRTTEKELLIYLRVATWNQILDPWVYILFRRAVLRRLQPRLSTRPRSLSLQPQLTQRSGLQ
Excerpt: The thromboxane receptor has been expressed in Xenopus oocytes. It can couple with endogenous signal transduction components to elicit a calcium-activated Cl- current recorded by electrophysiological measurement using the procedure described by Hirata, M. et al., (1991), Nature, 349, pp. 617. Binding studies have been performed with COS-1 cell membranes transfected by thromboxane receptor cDNA using the ligand S-145 (Hirata, M. et al., (1991), Nature, 349, pp. 617). […] This level of expression is at least 5-10 times higher than in platelet membranes. On a per-cell basis assuming a 10% transfection efficiency, we estimate ≈ 10^6 binding sites/tranfected cell as compared to ≈ 1300 sites present on a platelet (Hourani, S.M.O, et al., (1991), Pharmacol. Rev., 43, pp. 243).

[4] = target: T4, hEP3-9 (Homo sapiens, UniProt P43115); assay: [3H]PGE2 binding assay, membranes of hEP3-9 transfected COS-M6 cells; conditions: for fold less active than PGE2: competition for [3H]PGE2 specific binding, relative to PGE2
T4 construct: both a 1.7 kb full length human EP3-21 cDNA clone and a 1.4 kb full length human EP3-9 cDNA clone; expressed in transfected cells; host or cells: COS-M6 cells (membranes), pcDNAIamp vector
T4 sequence (P43115 1-365 isoform P43115-3): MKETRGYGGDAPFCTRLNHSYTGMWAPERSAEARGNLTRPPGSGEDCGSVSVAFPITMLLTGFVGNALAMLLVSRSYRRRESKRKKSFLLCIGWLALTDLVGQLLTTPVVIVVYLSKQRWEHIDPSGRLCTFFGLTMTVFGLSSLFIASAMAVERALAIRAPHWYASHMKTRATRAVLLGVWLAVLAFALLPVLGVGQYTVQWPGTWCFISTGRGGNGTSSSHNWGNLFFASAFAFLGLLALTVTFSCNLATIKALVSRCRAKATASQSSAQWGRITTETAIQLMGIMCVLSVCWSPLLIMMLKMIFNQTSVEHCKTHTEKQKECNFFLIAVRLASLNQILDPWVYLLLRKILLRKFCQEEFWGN
Experimental: as §1, with “cells.” for “cells. Binding assays for receptor activity are known in the art (Frey et al., 1993, Eur. J. Pharmacol., 244, pp 239-250).”
(§2) The three cloned forms of the human prostaglandin E receptor EP3 subtype (hEP3a, hEP3-21 and hEP3-9) which differ in the carboxyl terminus region of the encoded protein were individually subcloned into the pcDNAlamp plasmid (Invitrogen) and transfected into COS-M6 cells using the DEAE-dextran method. The cells were maintained in culture for 72 hours, then harvested and membranes prepared by differential centrifugation (1000 x g for 10 minutes, then 100,000 x g for 30 minutes) following lysis of the cells by nitrogen cavitation.

[5] = target: T5, hEP3-21 (Homo sapiens, UniProt P43115); assay: [3H]PGE2 binding assay, membranes of pcDNAIamp-hEP3-21 transfected COS-M6 cells; conditions: for fold less active than PGE2: competition for [3H]PGE2 specific binding, relative to PGE2
T5 construct: both a 1.7 kb full length human EP3-21 cDNA clone and a 1.4 kb full length human EP3-9 cDNA clone; expressed in transfected cells; host or cells: COS-M6 cells (membranes), pcDNAIamp vector
T5 sequence (P43115 1-388 isoform P43115-2): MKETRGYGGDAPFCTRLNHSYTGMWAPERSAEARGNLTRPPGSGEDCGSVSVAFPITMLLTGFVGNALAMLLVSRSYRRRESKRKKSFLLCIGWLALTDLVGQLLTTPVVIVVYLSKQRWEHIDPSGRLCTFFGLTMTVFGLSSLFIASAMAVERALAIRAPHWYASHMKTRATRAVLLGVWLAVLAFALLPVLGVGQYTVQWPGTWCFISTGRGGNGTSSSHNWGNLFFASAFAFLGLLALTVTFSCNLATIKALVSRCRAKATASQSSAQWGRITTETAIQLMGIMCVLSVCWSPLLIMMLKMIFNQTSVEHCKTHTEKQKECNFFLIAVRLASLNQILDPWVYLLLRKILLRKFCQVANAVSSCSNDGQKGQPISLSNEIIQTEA
Experimental: as §1, with “cells.” for “cells. Binding assays for receptor activity are known in the art (Frey et al., 1993, Eur. J. Pharmacol., 244, pp 239-250).”
as §2

[6] = target: T6, hEP3α (Homo sapiens, UniProt P43115); assay: [3H]PGE2 binding assay, membranes of pcDNAIamp-hEP3α transfected COS-M6 cells; conditions: for fold less active than PGE2: competition for [3H]PGE2 specific binding, relative to PGE2
T6 construct: a 1.9 kb full length human EP3α cDNA clone was plaque-purified; expressed in transfected cells; host or cells: COS-M6 cells (membranes), pcDNAIamp vector
T6 sequence (P43115 1-390): T2 sequence (P43115 1-390)
Experimental: as §1, with “cells.” for “cells. Binding assays for receptor activity are known in the art (Frey et al., 1993, Eur. J. Pharmacol., 244, pp 239-250).”
as §2

| SMILES | IC50 [2] | fold less active than PGE2 [4] | fold less active than PGE2 [5] | fold less active than PGE2 [6] | other results |
| --- | --- | --- | --- | --- | --- |
| CC(C)Oc1ccc2c(=O)c3cc(C(=O)O)ccc3oc2c1 [AH6809] | 2000 to 7000 nM |  |  |  | IC50 [1]: 500 nM; fold less active at the hEP3 subtype as compared with the hEP1 subtype ([2]; hEP3 versus hEP1, in general): 5-10 fold |
| CCCCC(C)(O)C/C=C/[C@H]1[C@H](O)CC(=O)[C@@H]1CCCCCCC(=O)OC (mixture of isomers) [misoprostol] | 300 to 1200 nM |  |  |  |  |
| O=C(O)CCC/C=C\C[C@@H]1[C@H](CNNC(=O)Nc2ccccc2)[C@H]2CC[C@@H]1O2 [SQ-29548] |  |  |  |  | binding [3]: high affinity binding |
| CCCCC[C@H](O)/C=C/[C@H]1[C@H](O)CC(=O)[C@@H]1CCCCCCC(=O)O [PGE1] |  |  |  |  | IC50 [4]: ~1 nM; IC50 [5]: ~1 nM; IC50 [6]: ~1 nM |
| CCCCC[C@H](O)/C=C/[C@H]1C(=O)C[C@H](O)[C@@H]1C/C=C\CCCC(=O)O [PGD2] |  | ~500 fold | ~2000 fold | ~2000 fold |  |
| CCCCC[C@H](O)/C=C/[C@@H]1[C@@H](C/C=C\CCCC(=O)O)[C@@H](O)C[C@H]1O [PGF2α] |  | ~65 fold | approximately 200 fold | approximately 200 fold |  |
